Results taken from the SangsterLogP compilation.

Test: method code SF-AS, from DOI: 10.1016/s0021-9673(01)95502-5
Settings: pH 3.4

Row | Structure (SMILES) | logD
1 | CC(CC(=O)O)CC(=O)c1ccc(-c2ccccc2)cc1 (stereo not drawn) | 3.82
2 | COc1ccc(C(=O)CC(C)CC(=O)O)cc1Cl (stereo not drawn) | 2.6
3 | O=C(O)CCCC(=O)c1ccc(-c2ccccc2)cc1 | 3.35
4 | COc1ccc(C(=O)CCCC(=O)O)cc1Cl | 2.17
5 | O=C(O)CCC(=O)c1ccccc1 | 1.3
6 | COc1ccc(C(=O)CCC(=O)O)cc1 | 1.38
7 | CC(CC(=O)c1ccccc1)C(=O)O (stereo not drawn) | 1.62
8 | CCC(O)(C(=O)O)c1ccc(CC(C)C)cc1 (stereo not drawn) | 3.37

Same assay, conditions: pH 3.5

Row | Structure (SMILES) | logD
9 | CC(C)Oc1ccc(C(=O)CC(C)C(=O)O)cc1 (stereo not drawn) | 2.5
10 | CC(CC(=O)O)CC(=O)c1ccc(C2CCCCC2)cc1 (stereo not drawn) | 4.38
11 | CC(C)Oc1ccc(C(=O)CCC(=O)O)cc1Cl | 2.78
12 | CC(C)COc1ccc(C(=O)CC(C)C(=O)O)cc1Cl (stereo not drawn) | 3.6
13 | CC(C)c1ccc(C(=O)CCC(=O)O)cc1 | 2.7
14 | COc1ccc(C(C)(O)C(=O)O)cc1Cl (stereo not drawn) | 1.26
15 | O=C(O)CCC(=O)c1ccc(Br)cc1 | 2.28
16 | O=C(O)CCCC(=O)c1ccc(C2CCCCC2)cc1 | 3.95
17 | CC(O)(C(=O)O)c1ccc(C2CCCCC2)cc1 (stereo not drawn) | 3.26
18 | CC(C)Oc1ccc(C(=O)CCC(=O)O)cc1 | 2.18
19 | CC(C)Cc1ccc(C(=O)CCC(=O)O)cc1 | 3.2
20 | COc1ccc(C(C)(O)C(=O)O)cc1 (stereo not drawn) | 0.81
21 | COc1ccc(C(=O)CCC(=O)O)cc1Cl | 1.98
22 | CC(CC(=O)c1ccc(C2CCCCC2)cc1)C(=O)O (stereo not drawn) | 4.08
23 | CC(C)c1ccc(C(=O)CCCC(=O)O)cc1 | 2.89
24 | CC(CC(=O)O)CC(=O)c1ccc(OC(C)C)c(Cl)c1 (stereo not drawn) | 3.4
25 | CC(C)(C)c1ccc(CC(=O)O)cc1 | 3.13
26 | O=C(O)CCC(=O)c1ccc(C2CCCCC2)cc1 | 3.76
27 | CCC(O)(C(=O)O)c1ccc(-c2ccccc2)cc1 (stereo not drawn) | 3.37
28 | CC(C)c1ccc(CC(=O)O)cc1 | 2.85
29 | CCc1ccc(CC(=O)O)cc1 | 2.43
30 | O=C(O)CCC(=O)c1ccc(C2CCCCC2)c(Cl)c1 | 4.36
31 | CCCCCCOc1ccc(C(=O)CCC(=O)O)cc1 | 3.88
32 | CC(C)Cc1ccc(C(=O)CCCC(=O)O)cc1 | 3.39

Test: not given
Settings: not given

Row | Structure (SMILES) | logP
33 | CC(CC(=O)c1ccc(-c2ccccc2)cc1)C(=O)O (stereo not drawn) | 3.13
